Measured values: patent publication EP3717657B1, “A SYSTEM FOR ASSESSING MICROBIAL SUSCEPTIBILITY TO ANTIBIOTIC AGENTS” (Ascilion AB, priority 2017, dated 2019)

Key:
[1] = system: Staphylococcus aureus (ATCC 29213); experiment: Antibiotic susceptibility by glucose consumption in culture medium, blood culture bottle inoculum (Example 1); type: cell-based; details: for Glucose concentration t=60: 60 minutes; for Glucose concentration t=120: 120 minutes; for Glucose concentration t=180: 180 minutes; for Glucose concentration t=240: 240 minutes; for dC/dT: rate of change in glucose concentration;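 as to dC/dT: rate calculated between the 60 and 180 min readings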
Experimental: (§1) Strains of Escherichia coli (ATCC 25922), Enterococcus faecalis (ATCC 29212) and Staphylococcus aureus (ATCC 29213) were inoculated in blood culture bottles (SVA, Uppsala, Sweden) and cultivated according to the manufacturer's instructions until positive.
(§2) Medium from each blood culture bottle was diluted 1:100 with cation adjusted Mueller-Hinton broth (SVA, Uppsala, Sweden) supplemented with glucose to a concentration of 1.0 mg/mL.
(§3) Table 1: Concentrations of antibiotic agents are given in µg/mL.
(§4) Glucose concentrations were measured at 0, 60, 120, 180, and 240 minutes using a WaveSense Jazz glucometer (AgaMatrix, Inc., Salem, NH, USA) with accompanying test strips.
(§5) Susceptibility scores corresponding to MIC values were calculated as described above. A 80% threshold was applied, i.e. the lowest concentration of antibiotic that entailed a rate of change in glucose concentration that was equal to or less than 80% of the reference was selected as the Minimal Inhibitory Concentration. The rate of change was calculated between the measurements at 60 and 180 minutes.

[2] = system: Escherichia coli (ATCC 25922); experiment: as above; type: cell-based; details: for Glucose concentration t=60: 60 minutes; for Glucose concentration t=120: 120 minutes; for Glucose concentration t=180: 180 minutes; for dC/dT: rate of change in glucose concentration;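 as to dC/dT: rate calculated between the 60 and 180 min readings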
Experimental: as §1, §2, §3, §4, §5

## CN[C@H](CC(C)C)C(=O)N[C@H]1C(=O)N[C@@H](CC(N)=O)C(=O)N[C@H]2C(=O)N[C@H]3C(=O)N[C@H](C(=O)N[C@H](C(=O)O)c4cc(O)cc(O)c4-c4cc3ccc4O)[C@H](O)c3ccc(c(Cl)c3)Oc3cc2cc(c3O[C@@H]2O[C@H](CO)[C@@H](O)[C@H](O)[C@H]2O[C@H]2C[C@](C)(N)[C@H](O)[C@H](C)O2)Oc2ccc(cc2Cl)[C@H]1O [Vancomycin]
[1]; [Ab] 0,5 µg/mL
  F=the rate of change in glucose concentration in relation to the reference: 84%
  Glucose concentration t=60: 156
  Glucose concentration t=120: 142
  Glucose concentration t=180: 100
  Glucose concentration t=240: 51
  dC/dT: 28
[1]; [Ab] 0,25 µg/mL
  F=the rate of change in glucose concentration in relation to the reference: 75%
  Glucose concentration t=60: 142
  Glucose concentration t=120: 133
  Glucose concentration t=180: 92
  Glucose concentration t=240: 42
  dC/dT: 25
[1]; [Ab] 1 µg/mL
  F=the rate of change in glucose concentration in relation to the reference: 96%
  Glucose concentration t=60: 161
  Glucose concentration t=120: 140
  Glucose concentration t=180: 97
  Glucose concentration t=240: 51
  dC/dT: 32
[1]; [Ab] 2 µg/mL
  F=the rate of change in glucose concentration in relation to the reference: 88%
  Glucose concentration t=60: 160
  Glucose concentration t=120: 143
  Glucose concentration t=180: 101
  Glucose concentration t=240: 53
  dC/dT: 30
[1]; [Ab] 4 µg/mL
  F=the rate of change in glucose concentration in relation to the reference: 39%
  Glucose concentration t=60: 157
  Glucose concentration t=120: 147
  Glucose concentration t=180: 131
  Glucose concentration t=240: 107
  dC/dT: 13
[1]; [Ab] 8 µg/mL
  F=the rate of change in glucose concentration in relation to the reference: 6%
  Glucose concentration t=60: 150
  Glucose concentration t=120: 150
  Glucose concentration t=180: 146
  Glucose concentration t=240: 149
  dC/dT: 2
[1]; [Ab] 16 µg/mL
  F=the rate of change in glucose concentration in relation to the reference: 7%
  Glucose concentration t=60: 157
  Glucose concentration t=120: 153
  Glucose concentration t=180: 152
  Glucose concentration t=240: 149
  dC/dT: 3
[1]; [Ab] 32 µg/mL
  F=the rate of change in glucose concentration in relation to the reference: 13%
  Glucose concentration t=60: 157
  Glucose concentration t=120: 140
  Glucose concentration t=180: 148
  Glucose concentration t=240: 146
  dC/dT: 5
[2]; [Ab] 0,5 µg/mL
  F=the rate of change in glucose concentration in relation to the reference: 65%
  Glucose concentration t=60: 149
  Glucose concentration t=120: 145
  Glucose concentration t=180: 68
  dC/dT: 41
[2]; [Ab] 0,25 µg/mL
  F=the rate of change in glucose concentration in relation to the reference: 68%
  Glucose concentration t=60: 150
  Glucose concentration t=120: 145
  Glucose concentration t=180: 66
  dC/dT: 42
[2]; [Ab] 1 µg/mL
  F=the rate of change in glucose concentration in relation to the reference: 73%
  Glucose concentration t=60: 155
  Glucose concentration t=120: 149
  Glucose concentration t=180: 65
  dC/dT: 45
[2]; [Ab] 2 µg/mL
  F=the rate of change in glucose concentration in relation to the reference: 65%
  Glucose concentration t=60: 147
  Glucose concentration t=120: 151
  Glucose concentration t=180: 67
  dC/dT: 40
[2]; [Ab] 4 µg/mL
  F=the rate of change in glucose concentration in relation to the reference: 69%
  Glucose concentration t=60: 147
  Glucose concentration t=120: 145
  Glucose concentration t=180: 61
  dC/dT: 43
[2]; [Ab] 8 µg/mL
  F=the rate of change in glucose concentration in relation to the reference: 87%
  Glucose concentration t=60: 159
  Glucose concentration t=120: 147
  Glucose concentration t=180: 51
  dC/dT: 54
[2]; [Ab] 0,125 µg/mL
  F=the rate of change in glucose concentration in relation to the reference: 71%
  Glucose concentration t=60: 153
  Glucose concentration t=120: 154
  Glucose concentration t=180: 65
  dC/dT: 44
[2]; [Ab] 0,0625 µg/mL
  F=the rate of change in glucose concentration in relation to the reference: 67%
  Glucose concentration t=60: 148
  Glucose concentration t=120: 144
  Glucose concentration t=180: 65
  dC/dT: 42
